# Experimental data from patent US8530404B2, “Compounds and methods for treatment of cancer” (FibroGen, Inc., priority 2005, dated 2013).
# Legend:
# HCT116-GFP colon tumors = assay: Orthotopically implanted human HCT116-GFP colon tumor mouse xenograft (Example 4); format: in vivo
# Procedure: Procedures were carried out as described above for Example 3, except that the tumors of GFP-transfected H-460 cells were replaced with HCT116-GFP colon tumors, and surgical orthotopic implantation was directly into colon tissue.
# The HCT116 tumor model used here is a well-characterized representative colon xenograft model. The isolation of the human HCT116 tumor cell line from a human colon carcinoma has been described. (Brattain et al (1981) Cancer Res 41:1751-1756.) To aid in the detection of tumors and metastases, HCT116 cells were transduced with genes directing the expression of fluorescent proteins (e.g., HCT116-GFP). The use of fluorescent HCT116-derived tumors in similar studies has been described previously. (Ross et al (2000) Nat Genet 24:227-235.)
# HCT116-GFP tumor fragments harvested from the stock animals were transplanted into animals by surgical orthotopic implantation (SOI) as follows. The animals were anesthetized with isoflurane and the surgical area was sterilized using iodine and alcohol. After proper exposure of the colon following a lower midline abdominal incision, the serosa of the colon was removed and two pieces of 1 mm^3 tumor fragments per mouse were implanted. An 8-0 surgical suture was used to penetrate these small tumor pieces and suture them on the wall of the intestine. The intestine was then returned to the abdominal cavity. The incision in the abdominal wall was closed with a 6-0 surgical suture in one layer. The animals were kept under isoflurane anesthesia during surgery. All procedures of the operation described above were performed under a 7× magnification microscope (Olympus). Animals were kept in a barrier facility under HEPA filtration.
# Administration of Compound A or 5-FU (5-Flurouracil) to the animals was initiated three days following tumor transplantation. 5-FU, a chemotherapeutic agent used as a positive control, was administered by intraperitoneal injection (60 mg/kg) at four day intervals for a total of three doses. Compound A was administered at either 20 mg/kg or 60 mg/kg three times per week. Tumor volumes were measured at day 15, day 22, and day 29.
# [1] = test system: MDA-MB-435-GFP breast tumors; assay: Orthotopically implanted human MDA-MB-435-GFP breast tumor mouse xenograft (Example 5); format: in vivo; details: 33 days of treatment; FIG. 1; dose not stated
# Procedure: The experiment was conducted essentially as described above in Example 3, except that the tumors of GFP-transfected H-460 cells were replaced with MDA-MB-435-GFP breast tumors, with surgical orthotopic implantation directly into breast tissue of female CD-1 nude animals. The number of animals in each group was increased to 15. […] (See, e.g., Ross et al (2000) Nat Genet 24:227-235 and Ellison et al. Mol Pathol. (2002) 55:294-299.)
# In the present MDA-MB-435-GFP breast cancer orthotopic study, administration of compound A was initiated 21 days after tumor fragment implantation to the mammary fat pad of female nude mice, at time at which the volume of primary tumors reached ˜150 mm^3. Taxotere, a positive chemotherapeutic agent control, was administered i.v. once weekly (15 mg/kg). After mean tumor volume in the vehicle control group exceeded 1 cm^3, animals were sacrificed (33 days of treatment) and primary tumors were excised from all animals and weighed.
# BNIP3L gene expression = BNIP3L gene expression in Kelly neuroblastoma cells (Affymetrix microarray); format: cell-based; details: 20 μM, 6 hours, vs 0.5% DMSO control
# Procedure: To identify compounds useful in the methods of the present invention, the following studies were performed. The effect of compounds of the present invention on expression of various genes associated with anti-tumor activity (e.g., genes having anti-proliferative activity, genes having pro-apoptotic activity, genes having anti-tumor activity, etc.). In these experiments, the effect of compounds on BNIP3, BNIP3L, NDRG1, CDKN1C, and REDD1/RTP801 gene expression in various types of cultured tumor cells line was examined, including Hep3B cells (human hepatocellular carcinoma), Kelly neuroblastoma cells, and MCF7 cells (human breast cancer)
# The effects of various compounds of the present invention on the expression of genes associated with tumor growth and progression were examined in Kelly neuroblastoma cells as follows. Kelly neuroblastoma cells were grown in RPMI media. […]
# RNA was isolated from the Kelly neuroblastoma cells using a commercial kit and used for the preparation of cDNA. BNIP3, CDKN1C, and 18S RNA levels were measured using commercial kits (18S, Applied Biosystems cat#4319413E); BNIP3, Applied Biosystems cat#HS00969293 MH). […] Kelly cell NDRG1 and BNIP3L mRNA levels were measured by Affymetrix microarray in a separate study. […]
Structure (SMILES),"mean tumor volume (calipers, mean +/- SD) (HCT116-GFP colon tumors; Treatment Day 15, 20 mg/kg three times per week)","mean tumor volume (calipers, mean +/- SD) (HCT116-GFP colon tumors; Treatment Day 15, 60 mg/kg three times per week)","mean tumor volume (calipers, mean +/- SD) (HCT116-GFP colon tumors; Treatment Day 22, 20 mg/kg three times per week)","mean tumor volume (calipers, mean +/- SD) (HCT116-GFP colon tumors; Treatment Day 22, 60 mg/kg three times per week)","mean tumor volume (calipers, mean +/- SD) (HCT116-GFP colon tumors; Treatment Day 29, 20 mg/kg three times per week)","mean tumor volume (calipers, mean +/- SD) (HCT116-GFP colon tumors; Treatment Day 29, 60 mg/kg three times per week)",reduction of mean tumor volumes compared to vehicle control [1],fold-increase in BNIP3L mRNA expression (BNIP3L gene expression) [fold]
"O=C(O)CNC(=O)c1nc(Cl)c2ccccc2c1O [Compound A, [(1-Chloro-4-hydroxy-isoquinoline-3-carbonyl)-amino]-acetic acid]",39 +/− 27,24 +/− 23,67 +/− 49,45 +/− 38,197 +/− 158,152 +/− 125,approximately 20%,–
"COc1ccc(Oc2ccc3c(O)c(C(=O)NCC(=O)O)ncc3c2)cc1 [Compound C, {[4-Hydroxy-7-(4-methoxy-phenoxy)-isoquinoline-3-carbonyl]-amino}-acetic acid]",–,–,–,–,–,–,–,5.9
